The supplement of paper PMC11208160

Assay: recombinant barcode read abundance after kanamycin selection (control-corrected) (log10(CPM+1)); higher = more efficient recombination; sequences stand for … in AGTGCAGAGAAAATCGGCCAGTTTTCTCTGCCTGCAGTCCGCATGCCGT…AGATTTATGCAGCGGACTGCCTTTCTCCCAAAGTGATAAACCGGACAGTATCATGGACCGGTTTTCCCGGTAATCCGTATTTGCAAGGTTGGTTTCACT; site = the 11-nt target
Summary of the method: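 Recombination efficiency draws on barcodes counted at recombinant junctions in a pooled E. coli screen of targets paired with IS621 bridge RNA target-binding loops. The counts were converted to counts per million, averaged and corrected against the chloramphenicol/ampicillin LB agar control, then reported as log10(CPM+1). Selection plates held chloramphenicol/ampicillin/kanamycin with 0.1 mM IPTG, with two replicates per condition.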
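Also: IS621 recombinase and bridge RNA in Escherichia coli cells.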

Sequence	recombinant barcode read abundance (log10)
GTCGGAGCTTGGGTTCTAACCTGTTGCGG (site GTCGGAGCTCA)	0.282
GTCGGAGCTTGGGTTCTAACCTGTTGCGG (site GTCGGAGCTCC)	1.97
GTCGGAGCTTGGGTTCTAACCTGTTGCGG (site GTCGGAGCTCG)	0.0393
GTCGGAGCTTGGGTTCTAACCTGTTGCGG (site GTCGGAGCTCT)	1.29
GTCGGAGCTTGGGTTCTAACCTGTTGCTG (site GTCGGAGCTCA)	0.757
GTCGGAGCTTGGGTTCTAACCTGTTGCTG (site GTCGGAGCTCC)	0.511
GTCGGAGCTTGGGTTCTAACCTGTTGCTG (site GTCGGAGCTCG)	0.353
GTCGGAGCTTGGGTTCTAACCTGTTGCTG (site GTCGGAGCTCT)	0.737
GTCGGCACTTGGGTTCTAACCTGTTGCCT (site GTCGGAACTAG)	0.359
GTCGGCACTTGGGTTCTAACCTGTTGCCT (site GTCGGCACTAG)	0.491
GTCGGCACTTGGGTTCTAACCTGTTGCCT (site GTCGGGACTAG)	0.653
GTCGGCACTTGGGTTCTAACCTGTTGCCT (site GTCGGTACTAG)	0.221
GTCGGCGCTTGGGTTCTAACCTGTTGCCT (site GTAGGCGCTAG)	0.107
GTCGGCGCTTGGGTTCTAACCTGTTGCCT (site GTCGGCGCTAG)	0.912
GTCGGCGCTTGGGTTCTAACCTGTTGCCT (site GTGGGCGCTAG)	0.531
GTCGGCGCTTGGGTTCTAACCTGTTGCCT (site GTTGGCGCTAG)	0.256
GTCGGGACTTGGGTTCTAACCTGTTGCCT (site GTCGGAACTAG)	0.863
GTCGGGACTTGGGTTCTAACCTGTTGCCT (site GTCGGCACTAG)	0.113
GTCGGGACTTGGGTTCTAACCTGTTGCCT (site GTCGGGACTAG)	1.51
GTCGGGACTTGGGTTCTAACCTGTTGCCT (site GTCGGTACTAG)	0.0446
GTCGTAGCTTGGGTTCTAACCTGTTGCCT (site GACGTAGCTAG)	0.464
GTCGTAGCTTGGGTTCTAACCTGTTGCCT (site GCCGTAGCTAG)	0.0842

Sequence	recombinant barcode read abundance (log10)
GTCGTAGCTTGGGTTCTAACCTGTTGCCT (site GGCGTAGCTAG)	0.116
GTCGTAGCTTGGGTTCTAACCTGTTGCCT (site GTCGTAGCTAG)	0.256
GTCTAAGCTTGGGTTCTAACCTGTTGCCT (site GTCTAAGCTAG)	0.171
GTCTAAGCTTGGGTTCTAACCTGTTGCCT (site GTCTGAGCTAG)	0.0375
GTCTACTCTTGGGTTCTAACCTGTTGCTG (site GTCTACTCTCA)	1.65
GTCTACTCTTGGGTTCTAACCTGTTGCTG (site GTCTTCTCTAA)	0.0134
GTCTCATCTTGGGTTCTAACCTGTTGCCT (site GTCTAATCTAG)	0.0787
GTCTCATCTTGGGTTCTAACCTGTTGCCT (site GTCTCATCTAG)	0.154
GTCTCATCTTGGGTTCTAACCTGTTGCCT (site GTCTGATCTAG)	0.0892
GTCTCATCTTGGGTTCTAACCTGTTGCCT (site GTCTTATCTAG)	0.0289
GTCTCGGCTTGGGTTCTAACCTGTTGCTG (site GGGTCGGCTCA)	0.0356
GTCTCGGCTTGGGTTCTAACCTGTTGCTG (site GTCTCGGCTCA)	0.0917
GTCTCTACTTGGGTTCTAACCTGTTGCCG (site GTCACTACTCG)	0.234
GTCTCTACTTGGGTTCTAACCTGTTGCCG (site GTCCCTACTCG)	0.593
GTCTCTACTTGGGTTCTAACCTGTTGCCG (site GTCGCTACTCG)	0.117
GTCTCTACTTGGGTTCTAACCTGTTGCCG (site GTCTCTACTCG)	0.0442
GTCTCTTCTTGGGTTCTAACCTGTTGCTA (site GTCTCGTCTAA)	0.0282
GTCTCTTCTTGGGTTCTAACCTGTTGCTA (site GTCTCTTCTTA)	0.306
GTCTTACCTTGGGTTCTAACCTGTTGCCT (site GTCATACCTAG)	0.0521
GTCTTACCTTGGGTTCTAACCTGTTGCCT (site GTCCTACCTAG)	1.21
GTCTTACCTTGGGTTCTAACCTGTTGCCT (site GTCGTACCTAG)	0.098
GTCTTACCTTGGGTTCTAACCTGTTGCCT (site GTCTTACCTAG)	1.34

Sequence	recombinant barcode read abundance (log10)
GTCTTACCTTGGGTTCTAACCTGTTGCTT (site GTCTTACCTAA)	0.74
GTCTTACCTTGGGTTCTAACCTGTTGCTT (site TTCATACCTAA)	0.128
GTCTTCCCTTGGGTTCTAACCTGTTGCCG (site ATCTTACCTCG)	0.0566
GTCTTCCCTTGGGTTCTAACCTGTTGCCG (site GTCTTCCCTCG)	1.5
GTCTTCCCTTGGGTTCTAACCTGTTGCGT (site GTCATGCCTAC)	0.0371
GTCTTCCCTTGGGTTCTAACCTGTTGCGT (site GTCTTCCCTAC)	1.74
GTGAAGCCTTGGGTTCTAACCTGTTGCCT (site ATGAAGCCTAG)	0.826
GTGAAGCCTTGGGTTCTAACCTGTTGCCT (site CTGAAGCCTAG)	0.464
GTGAAGCCTTGGGTTCTAACCTGTTGCCT (site GTGAAGCCTAG)	1.48
GTGAAGCCTTGGGTTCTAACCTGTTGCCT (site TTGAAGCCTAG)	0.421
GTGACCGCTTGGGTTCTAACCTGTTGCCT (site GTAACCGCTAG)	2
GTGACCGCTTGGGTTCTAACCTGTTGCCT (site GTCACCGCTAG)	0.235
GTGACCGCTTGGGTTCTAACCTGTTGCCT (site GTGACCGCTAG)	1.89
GTGACCGCTTGGGTTCTAACCTGTTGCCT (site GTTACCGCTAG)	0.59
GTGACCTCTTGGGTTCTAACCTGTTGCTG (site GGGACCTCTGA)	0.0723
GTGACCTCTTGGGTTCTAACCTGTTGCTG (site GTGACCTCTCA)	1.51
GTGAGGCCTTGGGTTCTAACCTGTTGCCT (site ATGAGGCCTAG)	1.19
GTGAGGCCTTGGGTTCTAACCTGTTGCCT (site CTGAGGCCTAG)	0.151
GTGAGGCCTTGGGTTCTAACCTGTTGCCT (site GTGAGGCCTAG)	0.153
GTGAGGCCTTGGGTTCTAACCTGTTGCCT (site TTGAGGCCTAG)	0.0445
GTGAGGTCTTGGGTTCTAACCTGTTGCCT (site GTGAGGTCTAA)	0.107
GTGAGGTCTTGGGTTCTAACCTGTTGCCT (site GTGAGGTCTAC)	0.343

Sequence	recombinant barcode read abundance (log10)
GTGAGGTCTTGGGTTCTAACCTGTTGCCT (site GTGAGGTCTAG)	1.62
GTGAGGTCTTGGGTTCTAACCTGTTGCCT (site GTGAGGTCTAT)	0.442
GTGAGTCCTTGGGTTCTAACCTGTTGCGT (site GTGAGTCCTAC)	2.61
GTGAGTCCTTGGGTTCTAACCTGTTGCGT (site GTTGGTCCTAC)	0.0363
GTGATCCCTTGGGTTCTAACCTGTTGCTG (site GTGAACTCTCA)	0.0648
GTGATCCCTTGGGTTCTAACCTGTTGCTG (site GTGATCCCTCA)	1.87
GTGCACACTTGGGTTCTAACCTGTTGCGG (site GTGCACACTCC)	2.44
GTGCACACTTGGGTTCTAACCTGTTGCGG (site GTGCACTCTCC)	0.322
GTGCAGACTTGGGTTCTAACCTGTTGCCT (site GTACAGACTAG)	2.5
GTGCAGACTTGGGTTCTAACCTGTTGCCT (site GTCCAGACTAG)	0.483
GTGCAGACTTGGGTTCTAACCTGTTGCCT (site GTGCAGACTAG)	2.05
GTGCAGACTTGGGTTCTAACCTGTTGCCT (site GTTCAGACTAG)	0.367
GTGCCCGCTTGGGTTCTAACCTGTTGCGG (site GTGCCCGCTCC)	1.11
GTGCCCGCTTGGGTTCTAACCTGTTGCGG (site GTGCCCTCTCG)	0.205
GTGCGCCCTTGGGTTCTAACCTGTTGCGT (site GTGCGCCCTAC)	2.13
GTGCGCCCTTGGGTTCTAACCTGTTGCGT (site GTGCGCCCTCC)	0.617
GTGGAGGCTTGGGTTCTAACCTGTTGCCT (site ATGGCGGCTAG)	0.371
GTGGAGGCTTGGGTTCTAACCTGTTGCCT (site GTGGAGGCTAG)	1.5
GTGGAGTCTTGGGTTCTAACCTGTTGCGT (site GTGGAGTCTAC)	1.49
GTGGAGTCTTGGGTTCTAACCTGTTGCGT (site TATCCTCCTCG)	0.0104
